Reference: patent publication US20040105849A1, “Treatment for SMA disease” (priority 2002, published 2004)

Tests used:
[1] = test system: Infantile Seborrhoeic Dermatitis (cradle cap); experiment: Treatment of Infantile Seborrhoeic Dermatitis (cradle cap) in Patient A; type: in vivo, human; conditions: about 4,000 mcg at intervals of three days per week
Excerpt: Early Symptoms and Patient Diagnosis. The patient (“Patient A”), a person. They were normal at birth with no signs of muscular weakness. Within three months of their birth, they developed a skin condition. […] Infantile Seborrhoeic Dermatitis, also known as cradle cap, is a condition that occurs in infants and is caused by the drying of excess oils excreted from the infant's body. It is characterized by a yellowish-whitish crust on the infant's head. Following medical consultation, various topical creams and ointments were employed without success. The B vitamin biotin was then given at a dosage of about 4,000 mcg at intervals of three days per week. Current research attributes cradle cap to a deficiency of this vitamin. […] Gut bacteria located in the large intestine are responsible for the production this B vitamin and a deficiency of this nutrient under normal conditions is rare.

[2] = test system: Patient A, Spinal Muscular Atrophy (SMA) Type I; experiment: Tolerability / adverse effects of the supplements in Patient A; type: in vivo, human
Excerpt: It is understood that the amounts of the various ingredients of the method of the invention can be, as may be necessary, conveniently be adjusted up or down for body weigh and other variants of the disease. The mode of delivery may vary. […] Ingredients could also be injected into the gastric tube in solid, gel or semi-solid form. Other children may swallow ingredients in solid or liquid form (with pharmaceutically acceptable carriers, e.g., water).

With `O=C(O)CCCC[C@@H]1SC[C@@H]2NC(=O)N[C@@H]21` [biotin] the “course of cradle cap” value [1] was “resolved itself almost immediately”.
With `C[C@@H]1O[C@@H](OC[C@H]2O[C@@H](Oc3c(-c4ccc(O)c(O)c4)oc4cc(O)cc(O)c4c3=O)[C@H](O)[C@@H](O)[C@@H]2O)[C@H](O)[C@H](O)[C@H]1O` [Rutin] the “adverse effects at higher dosages” value ([2]; dosages higher than approximately 3 mg every three days) was “nausea, decrease gastrointestinal motility and drowsiness” and the “adverse effect of rutin along with pectin” value ([2]; rutin added to pectin) was “caused their lips to blister and peel”.
With `O=c1c(O)c(-c2ccc(O)c(O)c2)oc2cc(O)cc(O)c12` [quercetin] the “adverse effect of too much quercetin” value ([2]; above 300 mg capsule, ½ capsule three days per week) was “depress Patient A's respiration”.
